Three molecules from patent US10995068B2, “Synthetic sphingolipid-like molecules, drugs, methods of their synthesis and methods of treatment” (The Regents of the University of California, priority 2015, dated 2021) can be followed below.

Entries after “also recorded” stand apart in the source; their conditions may differ.

For one data set, the target named is T1, S1P receptor 4 (Homo sapiens, UniProt O95977).
T1 construct: expressed in transfected cells
T1 sequence (O95977 1-384): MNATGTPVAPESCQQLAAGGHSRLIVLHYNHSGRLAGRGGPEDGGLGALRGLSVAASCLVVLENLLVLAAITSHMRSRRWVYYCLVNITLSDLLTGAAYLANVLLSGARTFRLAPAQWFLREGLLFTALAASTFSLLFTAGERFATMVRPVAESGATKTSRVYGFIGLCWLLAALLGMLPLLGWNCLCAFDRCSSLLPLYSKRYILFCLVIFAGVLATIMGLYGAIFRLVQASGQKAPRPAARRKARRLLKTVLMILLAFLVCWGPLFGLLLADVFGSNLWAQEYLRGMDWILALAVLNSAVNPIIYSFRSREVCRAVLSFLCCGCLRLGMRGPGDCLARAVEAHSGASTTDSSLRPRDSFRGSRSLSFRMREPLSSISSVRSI
The experiment in a line: S1P receptor activation in CHO cells, S1P4. It is filed as cell-based. The settings on record: CHO cells over-expressing human S1P4. The text has this:
(§1) Phosphorylation may have effects on S1P receptor activity that could cause bradycardia. Bradycardia, the dose-limiting toxicity that prevents the use of FTY720 in cancer patients, stems from FTY720-P's actions on S1P receptors 1 and 3. (Camm, J., et al. (2014) Am. Heart J. 168, 632-644; Cohen, J. A., Chun, J. (2011) Ann. Neurol. 69, 759-777; Sanna, M. G., et al. (2004) J. Biol. Chem. 279, 13839-13848; the disclosures of which are incorporated herein by reference). Phosphorylation by sphingosine kinase may make compounds competent to activate S1P receptors. FTY720, for example, when phosphorylated is known to activate S1P receptors 1 and 3. Because compound 5 could be phosphorylated, the activity of compound 5 and its phosphate 5-P (FIG. 28) on S1P receptors was evaluated (FIG. 32).
(§2) 51P1-5 activation: Chinese hamster ovary (CHO) cells stably over-expressing the different human 51P receptor subtypes are used. S1P1, S1P4 and S1P5 overexpressing CHO cells are cultured in medium containing alpha-MEM supplemented with 10% FBS, 50 μg/ml gentamycin and 0.5 mg/ml G418. S1P2 and S1P3 overexpressing CHO cells are cultured in RPMI containing 10% FBS, 50 μg/ml gentamycin and 0.5 mg/ml G418. Prior to stimulation, cells are rendered serum-free for 24 h. Stimulation is carried out for 10 min in serum-free DMEM containing 0.1 mg/ml of fatty-acid free BSA in the absence or presence of the various compounds or 51P. Protein lysates are prepared using a buffer containing (50 mM Tris pH 7.4, 150 mM NaCl, 10% glycerol, 1% Triton X-100, 2 mM EDTA, 2 mM EGTA, 40 mM β-glycerophosphate, 50 mM sodium fluoride, 10 mM sodium pyrophosphate, 2 mM dithiothreitol, 0.2 mM sodium orthovanadate). Cells are homogenized by one 5 sec burst in a MSE Ultrasonic Disintegrator, centrifuged and taken for protein determination. Equal amounts of protein are separated by SDS-PAGE (10% polyacrylamide gel), transferred to nitrocellulose membranes and subjected to Western blot analysis. Bands were stained using IRDye® secondary antibodies and visualized by the LICOR Odyssey® Fc Imaging system. Antibodies against phospho-Thr202/Tyr204-p42/p44-MAPK and phospho-Ser PKC substrate are from Cell Signaling, Frankfurt am Main, Germany. Polyclonal antisera against total p42 and total p44 were generated and characterized as previously described. (Huwiler, A.; Pfeilschifter, J. Br. J. Pharmacol. 1994, 113, 1455-1463; disclosure of which is incorporated herein by reference).

The next data set addresses T2, S1P receptor 2 (Homo sapiens, UniProt O95136).
T2 construct: expressed in transfected cells
Briefly: S1P receptor activation in CHO cells, S1P2. The class given is cell-based. The settings on record: CHO cells over-expressing human S1P2.
From the text: as §1, §2

The next data set deals with T3, S1P receptor 3 (Homo sapiens, UniProt Q99500).
T3 construct: expressed in transfected cells
The experiment in a line: S1P receptor activation in CHO cells, S1P3. The class given is cell-based. The conditions noted are these: CHO cells over-expressing human S1P3.
From the text: as §1, §2

Data set [1] in a line: Lymphocyte sequestration in mice. The settings on record: 10 mg/kg intraperitoneally, blood after 12 h, compared to saline. The class given is in vivo, C57BL6 mice. An excerpt:
(§3) In more exemplary embodiments, compounds 5 and 5-P were further examined for their ability to activate multiple S1P receptors in vivo. In particular, mouse heart rate and lymphocyte sequestration were examined. Mouse heart rate decreases causing bradycardia when S1P receptor 3 is activated while in humans this effect may be mediated by S1P receptor 1. In both mice and humans, lymphocytes are sequestered when the S1P receptor 1 is activated.
Lymphocyte sequestration: Female 8-24 week old C57BL6 mice are injected intraperitoneally with vehicle (0.9% saline or 20% acidified DMSO in 0.9% saline), 10 mg/kg FTY720, FTY720-phosphate, 5, or 5-P. After 12 h, blood is collected from the retro-orbital sinus under ketamine/xylazine anesthesia. 10 μL of whole blood is added to 190 μL of ACK red blood cell lysis buffer, incubated at room temperature for 3-5 minutes […], and the white blood cells recovered by centrifugation. Nucleated cells (Hoechst33342 positive) are counted using a hemocytometer to obtain the white blood cell count. Separately, 50 μL of whole blood is added to 1 mL of ACK red blood cell lysis buffer and incubated for 3-5 minutes at room temperature. Cells are washed with FACS wash (2% FCS in PBS with 0.05% NaN3) and red blood cell lysis repeated. Tubes are decanted and resuspended in 100 μL of FACS block (10% FCS in PBS with 0.05% NaN3) with directly conjugated antibodies recognizing B220, CD4, or CD8 (all from Biolegend, San Diego) for 30 min on ice. Cells are analyzed on a BD LSR II flow cytometer; the analysis is restricted to live cells (DAPI negative). These experiments are performed in accordance with all national or local guidelines and regulations and are approved by the UCI Institutional Animal Care and Use Committee.

The nature of data set [2]: Heart rate by ECG telemetry in mice. The class given is in vivo, C57BL/6 mice. The conditions noted are these: single dose 10 mg/kg intraperitoneally.
From the text: as §3
As shown in the telemetry readings detailed in FIG. 36, FTY720 (B) slowed heart rate comparison to compound 5 (C) and the control (A, saline). As shown in A, after administering saline, normal sinus rhythm with clearly discernible P waves, representing atrial depolarization, and QRS complexes, representing ventricular depolarization, at regular intervals is observed. The heart rate in this tracing was approximately 600 beats per minute (BPM). […] Finally, as shown in C, for exemplary embodiment compound 5, similar to the saline injection, normal sinus rhythm with well-defined and consistent P waves and QRS complexes were present following injection. The heart rate in this tracing was approximately 600 BPM, similar to saline.
Heart rate: C57BL/6 mice are surgically implanted with DSI TA-ETAF20 electrocardiographic telemetry devices (Data Sciences International, St. Paul, Minn.). The electrocardiographic data is collected and recorded using the PhysioTel telemetry system and Dataquest A.R.T 4.0 software (DSI). The telemetry device is implanted in the mouse's abdominal cavity with biopotential leads sutured in place in the chest wall. Buprenorphine (0.05 mg/kg) is administered every 12 h after surgery for pain management and enrofloxacin (3 mg/kg) is administered 2× per day for 7 days post-surgery as an antibiotic. Mice are permitted two weeks recovery after surgery before initiation of baseline telemetry recordings. Heart rate is calculated from ECG data taken in the freely moving, conscious mice. Mice are divided into two groups of 3 mice and treated intraperitoneally with a single dose of vehicle (0.9% saline or 20% acidified DMSO in 0.9% saline), 10 mg/kg FTY720, FTY720-Phosphate, 5, or 5-P and heart rate monitored continuously for 10 h. Mice are rested for two weeks at which point the experiment is repeated with the mice assigned to the alternate group. These experiments are performed in accordance with all national or local guidelines and regulations and were approved by the UCI Institutional Animal Care and Use Committee.

A further data set addresses T4, S1P receptor 1 (Homo sapiens, UniProt P21453).
T4 construct: expressed in transfected cells
Briefly: S1P receptor activation in CHO cells, S1P1. It is filed as cell-based. The conditions noted are these: CHO cells over-expressing human S1P1, 10 min stimulation, Western blot.
From the text: as §1, §2
On the technique in general: A western blot detects proteins with antibodies after separation by electrophoresis.

The next data set addresses T5, S1P receptor 5 (Homo sapiens, UniProt Q9H228).
T5 construct: expressed in transfected cells
Briefly: S1P receptor activation in CHO cells, S1P5. The class given is cell-based. The conditions noted are these: CHO cells over-expressing human S1P5.
From the text: as §1, §2

The test system of data set [3] is murine hematopoietic cell line FL5.12. Briefly: Viability of FL5.12 cells by vital dye exclusion. The settings on record: FL5.12 cells, 48 h, vital dye exclusion; n ≥3. The class given is cell-based. The protocol:
Cell culture studies: FL5.12 cells (murine hematopoetic cells originally obtained from Craig Thompson, Memorial Sloan Kettering Cancer Center) were maintained at 0.1-0.5 million/ml in RPMI 1640 (Mediatech) supplemented with 10% fetal calf serum (FCS, Sigma-Aldrich), 10 mM Hepes (Mediatech), 500 pg/ml recombinant IL-3 (cat #575502, Biolegend), 55 μM β-mercaptoethanol (Sigma-Aldrich), 2 mM L-glutamine (Mediatech), and antibiotics. Cells were screened for Mycoplasma every 3 months using the Look-Out Mycoplasma PCR Detection kit (cat #MP0035, Sigma).
IC50 values were calculated using GraphPad Prism (GraphPad Software, Inc, La Jolla, Calif.).

A further data set concerns PP2A. Briefly: PP2A phosphatase activity. The class given is biochemical, murine. The conditions noted are these: PP2A immunoprecipitated from FL5.12 cell lysates, phosphopeptide dephosphorylation. An excerpt:
Furthermore, many embodiments of the invention are directed to azacyclic constrained sphingolipid-like molecules inducing internalization of nutrient transporters via a mechanism that activates PP2A. […] Thus, activation of PP2A is very peculiar to certain sphingolipid structures. Activation of PP2A by FTY720 and SH-BC-893 also stimulated vacuolation, and as the PP2A inhibitors calyculin A and SV40 small t antigen, each blocked this effect (FIG. 59C). Of note, YM201636-induced vacuolation was unaffected by PP2A inhibition (FIG. 60B). In addition, inhibiting PP2A restored PIKfyve to the proper location within vacuoles in cells treated with FTY720 or SH-BC-893 (FIG. 57D).
PP2A phosphatase activity. PP2A activity was measured using a PP2A immunoprecipitation phosphatase assay kit (EMD Millipore). Briefly, the catalytic subunit of PP2A was immunoprecipitated from FL5.12 cell lysates with 4 μg anti-PP2A, C subunit. After four washes, the activity of immunoprecipitated PP2A was assessed by dephosphorylation of the phosphopeptide according to the manufacturer's instructions in the presence or absence of C2-ceramide, dihydro-C2-ceramide, FTY720, SH-BC-893, or calyculinA.

The test system of the next data set is FL5.12 cells. Briefly: Vacuolation assay. The class given is cell-based, murine. Further details: key to Vacuolation score: 0-100 score: (3×%cat3+2×%cat2+1×%cat1)/3; cells graded 0-3 for vacuoles. The settings on record: FL5.12 cells. The method, then: In an exemplified study, nutrient transporter down-regulation was monitored by quantifying surface levels of the amino acid transporter-associated protein, CD98, by flow cytometry. Vacuolation was scored in a range from 0 to […], as determined by a vacuolation assay described in greater detail in the Materials and Methods section below.
Vacuolation assay: Cells were evaluated at 100× using brightfield microscopy and a Nikon TE2000-S fluorescence microscope equipped with DIC filters. Vacuolation was quantified after a 3 h incubation period in 2.5 μM compound except where otherwise indicated. To calculate a vacuolation score, vacuolation severity in at least 15 individual cells/experiment was assessed qualitatively. Scores were assigned to individual cells as follows: 0=no vacuoles, 1=very small vacuoles, 2=multiple well-defined vacuoles, 3=multiple large vacuoles. To calculate the vacuolation score associated with a compound, the following formula was used: vacuolation score=[(3×% cells in category 3)+(2×% cells in category 2)+(1×% cells in category 1)]/3.
The score is divided by 3 so that a compound with 100% of its cells in category 3 would have a vacuolation score of 100. Three independent experiments were conducted and the vacuolation scores averaged to generate a mean+/−SEM. All cells were scored by one lab member after confirming that a blinded individual scored 5 compounds with similar results.

T3 sequence (Q99500 whole entry): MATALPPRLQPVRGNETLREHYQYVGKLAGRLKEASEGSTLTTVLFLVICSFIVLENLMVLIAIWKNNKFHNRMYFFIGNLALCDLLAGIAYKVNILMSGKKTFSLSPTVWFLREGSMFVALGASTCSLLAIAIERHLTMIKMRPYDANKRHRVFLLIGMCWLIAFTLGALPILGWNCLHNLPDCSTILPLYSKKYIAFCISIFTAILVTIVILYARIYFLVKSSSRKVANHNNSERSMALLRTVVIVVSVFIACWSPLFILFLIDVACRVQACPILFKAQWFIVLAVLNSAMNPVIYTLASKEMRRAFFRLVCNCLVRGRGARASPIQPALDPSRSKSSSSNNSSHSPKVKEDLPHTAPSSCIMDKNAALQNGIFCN
T5 sequence (Q9H228 whole entry): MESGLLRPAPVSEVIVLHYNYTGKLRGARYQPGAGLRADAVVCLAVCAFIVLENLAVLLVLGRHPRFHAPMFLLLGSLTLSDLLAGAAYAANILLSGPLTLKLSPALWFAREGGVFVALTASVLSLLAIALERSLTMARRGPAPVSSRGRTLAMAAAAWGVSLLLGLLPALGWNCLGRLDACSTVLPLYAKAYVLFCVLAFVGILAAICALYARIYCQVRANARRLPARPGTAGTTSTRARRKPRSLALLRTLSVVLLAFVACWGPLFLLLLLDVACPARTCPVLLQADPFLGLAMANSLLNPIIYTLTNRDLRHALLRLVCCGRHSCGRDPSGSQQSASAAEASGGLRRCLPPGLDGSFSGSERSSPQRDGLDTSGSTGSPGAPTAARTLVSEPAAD
T4 sequence (P21453 whole entry): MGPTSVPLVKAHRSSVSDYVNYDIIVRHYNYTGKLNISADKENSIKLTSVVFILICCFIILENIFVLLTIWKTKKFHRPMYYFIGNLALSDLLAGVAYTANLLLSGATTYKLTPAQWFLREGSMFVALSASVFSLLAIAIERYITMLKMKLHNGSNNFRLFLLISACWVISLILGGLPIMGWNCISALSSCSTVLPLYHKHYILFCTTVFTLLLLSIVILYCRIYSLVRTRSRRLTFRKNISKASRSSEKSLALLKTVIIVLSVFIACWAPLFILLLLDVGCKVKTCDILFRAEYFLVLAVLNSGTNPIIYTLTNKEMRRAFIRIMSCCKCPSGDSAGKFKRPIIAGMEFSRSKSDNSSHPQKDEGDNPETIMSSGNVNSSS
T2 sequence (O95136 whole entry): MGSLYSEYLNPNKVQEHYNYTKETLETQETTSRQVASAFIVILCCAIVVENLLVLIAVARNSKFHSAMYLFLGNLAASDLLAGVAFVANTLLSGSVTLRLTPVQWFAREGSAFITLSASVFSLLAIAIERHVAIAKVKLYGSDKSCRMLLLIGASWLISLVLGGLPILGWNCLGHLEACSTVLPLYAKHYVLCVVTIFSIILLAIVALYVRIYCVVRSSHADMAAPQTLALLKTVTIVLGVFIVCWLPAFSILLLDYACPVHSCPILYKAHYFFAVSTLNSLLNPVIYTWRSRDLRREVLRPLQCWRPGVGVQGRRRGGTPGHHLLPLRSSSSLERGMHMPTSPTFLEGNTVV

Regarding `CCCCCCCCc1ccc([C@H]2CCN[C@@H]2COP(=O)(O)O)cc1` [Compound 5-P, ((2S,3R)-3-(4-octylphenyl)pyrrolidin-1-ium-2-yl)Methyl hydrogen phosphate], the “activation of S1P receptor 4” value at S1P receptor 4 is “failed to activate”. For the same molecule, the “activation of S1P receptor 2” value at S1P receptor 2 is reported as “failed to activate”. Moreover, the “activation of S1P receptor 3” value on S1P receptor 3 is “failed to activate”. Also, the lymphocyte sequestration result in [1] is recorded as “no significant effect”. The “effect on heart rate” value in data set [2] (compared to saline controls) is “no significant effect”. Besides, the “activation of S1P receptor 1” value at S1P receptor 1 is given as “weakly activated”. Moreover, the “activation of S1P receptor 5” value at S1P receptor 5 is reported as “failed to activate”.
In the case of `CCCCCCCCCCCCCCC[C@@H](O)[C@H](CO)NC(C)=O` [Compound 110, dihydro-C2-ceramide, reference compound], in [3], the “IC50 (μM) [95% CI]” value was “failed to kill cells; also recorded: Cytostatic”. The PP2A activation result in the data set on PP2A is “does not activate PP2A”. Further, the Vacuolation score with FL5.12 cells (3 h in 2.5 μM compound except where otherwise indicated, mean ± SEM, n ≥3) is reported as 0. The “vacuolation (in words)” value in the data set on FL5.12 cells (at any dose / highest dose tested) is given as “caused no vacuolation”.
For the molecule `CCCCCCCCc1ccc(CC[C@](N)(CO)COP(=O)(O)O)cc1` [FTY720-P, reference compound], the lymphocyte sequestration entry in data set [1] is “significantly sequestered lymphocytes”. Moreover, the “decrease of heart rate” value in data set [2] (compared to saline vehicle) was “approximately 50%”.
